Where a name gives a salt, the structure may show the parent alone.
Assays:
[1] = tested on: SW620 (colorectal adenocarcinoma, metastatic); assay: Proliferation assay (MTT, 72 h) on SW620; format: cell-based; conditions: Homo sapiens, SW-620, SW620, 72 h
Method: (§1) Human cell lines SW620 (colorectal adenocarcinoma, metastatic), MCF-7 (human breast adenocarcinoma), CFPAC-1 (pancreatic adenocarcinoma), HeLa (cervical carcinoma), and HFF-1 (human foreskin fibroblasts) were obtained from the American Type Culture Collection (ATCC). Cells were cultured in a humidified atmosphere at 37 °C with 5% CO2. As a growth medium, Dulbecco’s modified Eagle medium (DMEM) was used with the addition of foetal bovine serum (10%), L-glutamine (2 mM), and antibiotics: streptomycin ([…]) and penicillin (100 U/ml).
(§2) Cells were seeded onto 96-well microtiter plates at a seeding density of 3000 cells/well for carcinoma cell lines, and 5000 cells/well for normal human fibroblasts. The next day, cells were treated with test agents at five different concentrations (0.01–100 µM) and further incubated for 72 h. […] 5-Fluorouracil (5-FU, 0.384 M fluorouracilum, Pliva 500 mg/10 ml) dissolved in physiological solution was used as a positive control. Following 72 h incubation, the MTT assay was performed and measured absorbances were transformed into a percentage of cell growth as described previously. Results were obtained from three independent experiments. IC50 values were calculated using linear regression analysis (FORECAST option taking into account the concentration range of two experimental points above and below IC50).

[2] = tested on: CFPAC-1 (pancreatic adenocarcinoma); assay: Proliferation assay (MTT, 72 h) on CFPAC-1; format: cell-based; conditions: Homo sapiens, CFPAC-1, 72 h
Method: as §1, §2

[3] = tested on: MCF-7 (human breast adenocarcinoma); assay: Proliferation assay (MTT, 72 h) on MCF-7; format: cell-based; conditions: MCF7, MCF-7, 72 h
Method: as §1, §2

[4] = tested on: HeLa (cervical carcinoma); assay: Proliferation assay (MTT, 72 h) on HeLa; format: cell-based; conditions: Homo sapiens
Method: as §1, §2

[5] = tested on: HFF-1 (human foreskin fibroblasts); assay: Proliferation assay (MTT, 72 h) on normal fibroblasts HFF-1; format: cell-based; conditions: HFF-1 normal fibroblasts
Method: as §1, §2

[6] = tested on: Bloodstream form T. b. brucei (strain 221); assay: Antitrypanosomal screening (resazurin); format: cell-based; conditions: Trypanosoma brucei; for IC90: concentration that inhibited growth by 90%, mean ± SEM; for IC50: mean of triplicate ± SEM
Method: Resazurin (20 μl at 0.125 mg ml^−1) was added after 48 h, the plates were incubated for a further 16 h, and then read in a Spectramax plate reader, and data analysed using GraphPad Prism. Each drug was tested in triplicate.

[7] = tested on: L6 cells (a rat myoblast line); assay: L6 cell proliferation (cytotoxicity, resazurin); format: cell-based; conditions: for IC50: 144 h, rat myoblast L6, 6 days; for SI IC50 (L6/Tb): SI = [IC50 L6 cells]/[IC50 T. brucei]

SMILES	IC50 [1]	IC50 [2]	IC50 [3]	IC50 [4]	IC50 [5]	melting point	IC90 [6]	IC50 [6]	IC50 [7]	SI IC50 (L6/Tb) [7]
CS(=O)(=O)O.c1ccc(-n2cc(COc3nc4ccc(C5=NCCCN5)cc4s3)nn2)cc1 [12a, 6-(3,4,5,6-Tetrahydropyrimidin-1-ium-2-yl)-2-[(1-phenyl-1H-1,2,3-triazol-4-yl)methoxy] benzothiazole methanesulfonate]	4.17 ± 0.28 µM	3.98 ± 0.29 µM	3.98 ± 0.04 µM	2.95 ± 0.38 µM	0.44 ± 0.03 µM	249 to 254 °C	–	–	–	–
N=C(N)c1ccc2nc(-c3ccc(OCc4cn(-c5ccccc5)nn4)cc3)sc2c1 (as salt: methanesulfonate) [10a]	–	–	–	–	–	272 to 275 °C	–	–	–	–
N=C(N)c1ccc2nc(-c3ccc(OCc4cn(-c5ccccc5)nn4)cc3)sc2c1 [10a]	2.89 ± 0.03 µM	3.34 ± 0.19 µM	3.39 ± 1.17 µM	2.89 ± 0.11 µM	0.17 ± 0.04 µM	–	1.45 ± 0.11 µM	1.17 ± 0.1 µM	< 2 µM	–
CS(=O)(=O)O.c1ccc(Cn2cc(COc3nc4ccc(C5=NCCCN5)cc4s3)nn2)cc1 [12d, 6-(3,4,5,6-Tetrahydropyrimidin-1-ium-2-yl)-2-[(1-benzyl-1H-1,2,3-triazol-4-yl)methoxy]benzothiazole methanesulfonate]	7.94 ± 2.58 µM	23.4 ± 0.29 µM	6.01 ± 0.53 µM	8.6 ± 0.85 µM	1.74 ± 0.29 µM	197 to 199 °C	–	–	–	–
N=C(N)c1ccc2nc(-c3cn(Cc4ccccc4)nn3)sc2c1 [13d, 6-Amidinium-2-(1-benzyl-1H-1,2,3-triazole-4-yl)benzothiazole methanesulfonate]	9.48 ± 0.29 µM	25.9 ± 3.71 µM	22.6 ± 0.91 µM	14.9 ± 1.54 µM	4.04 ± 1.35 µM	–	–	–	–	–
CS(=O)(=O)O.c1ccc(Cn2cc(-c3nc4ccc(C5=NCCN5)cc4s3)nn2)cc1 [14d, 6-(4,5-Dihydro-1H-imidazol-3-ium-2-yl)-2-(1-benzyl-1H-1,2,3-triazole-4-yl)benzothiazole methanesulfonate]	0.85 ± 0.61 µM	8.71 ± 3.74 µM	1.76 ± 1.17 µM	0.82 ± 0.01 µM	0.11 ± 0.01 µM	236 to 240 °C	8.66 ± 0.2 µM	3.68 ± 0.22 µM	6.64 ± 0.53 µM	1.8
N=C(N)c1ccc2nc(-c3ccc(OCc4cn(Cc5ccccc5)nn4)cc3)sc2c1 (as salt: methanesulfonate) [10d]	–	–	–	–	–	253 to 257 °C	–	–	–	–
N=C(N)c1ccc2nc(-c3cn(-c4ccccc4)nn3)sc2c1 (as salt: methanesulfonate) [13a, 6-Amidinium-2-(1-phenyl-1H-1,2,3-triazole-4-yl)benzothiazole methanesulfonate]	–	–	–	–	–	289 to 293 °C	–	–	–	–
COc1ccc(-n2cc(-c3nc4ccc(C(=N)N)cc4s3)nn2)cc1 (as salt: methanesulfonate) [13c, 6-Amidinium-2-[1-(4-methoxyphenyl)-1H-1,2,3-triazole-4-yl]benzothiazole methanesulfonate]	–	–	–	–	–	> 300 °C	–	–	–	–
COc1ccc(-n2cc(COc3ccc(-c4nc5ccc(C(=N)N)cc5s4)cc3)nn2)cc1 (as salt: methanesulfonate) [10c]	–	–	–	–	–	265 to 270 °C	–	–	–	–
N=C(N)c1ccc2nc(-c3ccc(OCc4cn(Cc5ccccc5)nn4)cc3)sc2c1 [10d]	1.18 ± 0.18 µM	5.15 ± 0.23 µM	3.02 ± 0.98 µM	1.77 ± 0.45 µM	0.76 ± 0.18 µM	–	–	–	–	–
COc1ccc(-n2cc(COc3ccc(-c4nc5ccc(C(=N)N)cc5s4)cc3)nn2)cc1 [10c]	3.86 ± 0.29 µM	3.45 ± 0.29 µM	3.66 ± 1.49 µM	2.87 ± 1.24 µM	0.31 ± 0.08 µM	–	1.26 ± 0.02 µM	1 ± 0.07 µM	< 2 µM	–
CS(=O)(=O)O.c1ccc(-n2cc(-c3nc4ccc(C5=NCCCN5)cc4s3)nn2)cc1 [15a, 6-(3,4,5,6-Tetrahydropyrimidin-1-ium-2-yl)-2-(1-phenyl-1H-1,2,3-triazole-4-yl)benzothiazole methanesulfonate]	4.15 ± 1.58 µM	37.6 ± 4.58 µM	8.31 ± 0.12 µM	7.62 ± 0.84 µM	0.53 ± 0.1 µM	269 to 274 °C	–	–	–	–
N=C(N)c1ccc2nc(-c3ccc(OCc4cn(-c5ccc(Cl)cc5)nn4)cc3)sc2c1 (as salt: methanesulfonate) [10b]	–	–	–	–	–	276 to 279 °C	–	–	–	–
N=C(N)c1ccc2nc(-c3cn(Cc4ccccc4)nn3)sc2c1 (as salt: methanesulfonate) [13d, 6-Amidinium-2-(1-benzyl-1H-1,2,3-triazole-4-yl)benzothiazole methanesulfonate]	–	–	–	–	–	262 to 267 °C	–	–	–	–
CS(=O)(=O)O.c1ccc(Cn2cc(-c3nc4ccc(C5=NCCCN5)cc4s3)nn2)cc1 [15d, 6-(3,4,5,6-Tetrahydropyrimidin-1-ium-2-yl)-2-(1-benzyl-1H-1,2,3-triazole-4-yl)benzothiazole methanesulfonate]	31.9 ± 8.38 µM	49.9 ± 12.5 µM	40.6 ± 10.6 µM	31 ± 4.5 µM	18.9 ± 0.19 µM	170 to 174 °C	–	–	–	–
COc1ccc(-n2cc(-c3nc4ccc(C5=NCCCN5)cc4s3)nn2)cc1.CS(=O)(=O)O [15c, 6-(3,4,5,6-Tetrahydropyrimidin-1-ium-2-yl)-2-[1-(4-methoxyphenyl)-1H-1,2,3-triazole-4-yl]benzothiazole methanesulfonate]	4.07 ± 1.06 µM	4.74 ± 0.14 µM	4.28 ± 0.06 µM	4.3 ± 0.41 µM	1.33 ± 0.17 µM	261 to 265 °C	–	–	–	–
COc1ccc(-n2cc(-c3nc4ccc(C(=N)N)cc4s3)nn2)cc1 [13c, 6-Amidinium-2-[1-(4-methoxyphenyl)-1H-1,2,3-triazole-4-yl]benzothiazole methanesulfonate]	5.39 ± 0.41 µM	5.23 ± 0.87 µM	4.5 ± 0.43 µM	3.64 ± 1.44 µM	2.99 ± 1.17 µM	–	–	–	–	–
N=C(N)c1ccc2nc(-c3cn(-c4ccc(Cl)cc4)nn3)sc2c1 (as salt: methanesulfonate) [13b, 6-Amidinium-2-[1-(4-chlorophenyl)-1H-1,2,3-triazole-4-yl]benzothiazole methanesulfonate]	–	–	–	–	–	> 300 °C	–	–	–	–
N=C(N)c1ccc2nc(-c3cn(-c4ccc(Cl)cc4)nn3)sc2c1 [13b, 6-Amidinium-2-[1-(4-chlorophenyl)-1H-1,2,3-triazole-4-yl]benzothiazole methanesulfonate]	3.55 ± 0.85 µM	3.17 ± 0.11 µM	3.32 ± 0.01 µM	2.74 ± 0.21 µM	0.85 ± 0.05 µM	–	1.02 ± 0.02 µM	0.67 ± 0.07 µM	2.69 ± 0.42 µM	4.0
N=C(N)c1ccc2nc(-c3cn(-c4ccccc4)nn3)sc2c1 [13a, 6-Amidinium-2-(1-phenyl-1H-1,2,3-triazole-4-yl)benzothiazole methanesulfonate]	24.2 ± 4.31 µM	26.6 ± 4.69 µM	25.6 ± 3.15 µM	7.77 ± 0.05 µM	2.07 ± 0.13 µM	–	2.52 ± 0.34 µM	2.02 ± 0.1 µM	7.97 ± 0.96 µM	3.9
